Data reported in patent US12257290B2, “PIC1 inhibition of myeloperoxidase oxidative activity in an animal model” (priority 2018, dated 2025).
Ends that are not written are not given here.

Columns and labels:
Human neutrophil MPO = experiment: Purified MPO inflammatory peritonitis model (peritoneal wash TMB peroxidase activity, PicoGreen free DNA); assay type: in vivo, Wistar rats; conditions: for MPO activity in peritoneal wash: P<0.019
Experimental: Human neutrophil MPO (Lee Biosolutions) was diluted in sterile saline to the respective doses necessary for each experiment. PIC1 in the form of PA-dPEG24 (PolyPeptide Group) was solubilized and diluted in 0.5 M Histidine buffer, adjusted to pH 6.5, and then diluted to each of the respective doses used for each experiment.
Wistar rats were sedated and injected IP with purified MPO in experiments that were conducted under an Eastern Virginia Medical School IRB approved protocol (#17-008). 16-week-old male Wistar rats were used in these experiments weighing approximately 200 g. The rats received sedation with ketamine and acepromazine prior to all procedures. They then received a 1 ml IP injection with MPO in saline. After the time interval indicated, a tail vein phlebotomy was performed to obtain 250 mcl of blood in a K2EDTA Microtainer (BD). The animals were then euthanized with FatalPlus IV. A peritoneal wash with 20 ml of ice cold PBS was then performed by […] followed by massage and extraction from a small hole in the peritoneum with a blunt needle and syringe.
Cells were sedimented and supernatants were tested for MPO peroxidation of TMB, with sample processing performed as follows. Peritoneal wash fluid was centrifuged at 1500×g for 5 minutes to sediment cells and other debris. The resulting peritoneal wash fluid supernatant was aliquoted and frozen for further analysis. The cell pellet was resuspended to the original volume with saline and cells were counted on a hemocytometer. Plasma was collected after centrifugation of the lavender top blood collection tubes.
The MPO activity assay was performed as follows. Peritoneal fluid, along with pure MPO for a standard curve, was serially titrated in 0.1 ml in a 96 well plate followed by the addition of 0.1 ml of 3,3′,5,5′-tetramethylbenzidine (TMB) (Fisher). After one minute, 0.1 ml of 2.5 M H2SO4 was added to stop the reaction and the plate was read at 450 nm. Using linear regression from the standard curve, the MPO activity was calculated for each sample.
In the peritoneal wash fluid supernatants, free DNA was measured as a marker of NETosis via the PicoGreen assay. Peritoneal fluid or plasma, along with DNA (Invitrogen) for a standard curve, was serially titrated in 0.1 ml in a 96 well plate and used in the Quant-iT PicoGreen (Fisher) assay. The PicoGreen solution was diluted as directed by the kit instructions and added to samples, which were incubated in the dark for 10 minutes and then read on a fluorescent microplate reader at excitation 480 nm/emission 520 nm). Using linear regression from the standard curve, the DNA concentration was quantitated for each sample.
The effect of PIC1, in particular PA-dPEG24, on the inhibition of MPO and NETosis in MPO-mediated peritonitis was then assayed. A series of increasing doses of PA-dPEG24 (1 mg, 5 mg, and 20 mg) were injected IP immediately, i.e., one minute after purified MPO was inoculated, into the peritoneum followed 2 hours later by phlebotomy, euthanasia and peritoneal wash. A control was used where no PA-dPEG24 was administered. An MPO activity assay and a free DNA assay according to the methods discussed above were conducted for each of 0 mg, 1 mg, 5 mg, and 20 mg PA-dPEG24 doses.

human neutrophils = experiment: Immune complex-activated serum-initiated NET formation by human neutrophils (fluorescence microscopy, PicoGreen free DNA); assay type: cell-based; conditions: for decrease of free DNA (PicoGreen): immune complex-activated sera + hydrogen peroxide
Experimental: Neutrophils from the blood of healthy volunteers were purified from heparinized blood by Hypaque-Ficoll step gradient centrifugation, dextran sedimentation, and hypotonic lysis, as previously described.
A Neutrophil Extracellular Trap assay was performed in a microtiter plate as follows. The formation of NETs was induced by incubating 2.0×10^5 neutrophils in a 96 well tissue culture plates with RPMI media alone, or adding 0.05% of H2O2, or 12 nM PMA, or 8 μg/ml MPO, or PA-dPEG24 at various concentrations. For immune complex sera induced NET formation, activated sera was made by adding 5 μl of ovalbumin-anti-ovalbumin immune complex to 5% NHS in 0.3 ml of GVBS^++. This combination was allowed to incubate for 30 minutes at 37° C., and then 0.05 ml was added to the neutrophils in RPMI. Cells were then incubated for 1.5 hours at 37° C. in 5% CO2 incubator.
NET formation was quantitatively assayed as follows. Free DNA was measured by PicoGreen in the supernatant recovered from the NET microtiter plate well assay. Five hundred units of […] (Fisher) were added to each well to allow for digestion of released extracellular DNA for 10 minutes in 37° C. incubator. The preparation was then aliquoted into an adjacent well and mixed 1:1 with prepared PICO green reagent (Fisher). The fluorescence was then quantified on a BioTek microplate reader at Excitation 485 nm/Emission 528 nm.
NET formation was assayed by fluorescence microscopy. […]
PA-dPEG24 inhibits immune complex-initiated NET formation by human neutrophils. A potential relationship between immune complex-initiated complement-activated human sera and NET formation by human neutrophils was evaluated. […] The immune complex-initiated complement-activated human sera was then incubated with purified human neutrophils resulting in NET formation quantified by free DNA measurement with PicoGreen. The relative contribution of immune complexes was initially evaluated by themselves compared with immune complex-initiated complement-activated human sera for generation of NETs. […]

IALILEPICCQERAA-dPEG24 (cysteine pairing not given here) [PA-dPEG24, 15-amino acid PEGylated peptide, 24 PEG moieties at the C-terminus]
MPO activity in peritoneal wash (Human neutrophil MPO; 1 mg (5 mg/kg) IP, 2 h): Statistically significant decreases | MPO activity in peritoneal wash (Human neutrophil MPO; 5 mg (25 mg/kg) IP, 2 h): Statistically significant decreases | free DNA in the peritoneal fluid (PicoGreen) (Human neutrophil MPO; 20 mg (100 mg/kg) IP, 2 h, P=0.11): trend towards decreased free DNA | decrease in peroxidase activity by TMB in peritoneal wash (Human neutrophil MPO; 20 mg (100 mg/kg) IP, 2 h, vs no PA-dPEG24, P=0.015): 5 fold | free DNA in blood plasma (PicoGreen) (Human neutrophil MPO; highest dose, P=0.22 vs no PIC1): lowest with the highest dose | decrease of free DNA (PicoGreen) (human neutrophils; 2.2 mM PA-dPEG24, P=0.037): 23% | decrease of free DNA (PicoGreen) (human neutrophils; 4.5 mM PA-dPEG24, P<0.001): 3 fold | NETs identified by fluorescence microscopy (human neutrophils; 5 mM PA-dPEG24, immune complex-initiated complement-activated sera): no NETs were identified
